Drawing on PubChem BioAssay (NCI), this text covers GI50 and TGI for eight molecules.

Where “and” joins values, the source holds several entries; their conditions need not be identical. Identical values can stand only once.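 Growth conditions: 96-well plates. Treatment: test compound, 48 hours, 5 concentrations. Analysis: linear interpolation between bracketing concentrations; unreached endpoints set to highest concentration. GI50 = concentration required for 50% inhibition of growth. Definition used: TGI = concentration required for complete inhibition of growth.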

Assay in all cases: NCI tumour cell line growth inhibition, 48 h
For experiment [1], the system named is PC-3 prostate.
Experiment [2] has as its system LOX IMVI melanoma.
Experiment [3] relates to DU-145 prostate.
For experiment [4], the system named is IGROV1 ovarian.
In experiment [5] the test system is RPMI-8226 leukemia.
Experiment [6] has as its system HCC-2998 colon.
The subject of experiment [7] is A498 renal.
The subject of experiment [8] is SF-295 CNS.
The test system of experiment [9] is SNB-75 CNS.
Experiment [10] has as its system SK-MEL-28 melanoma.

Take `CN(C)C(=O)c1cc2cnc(Nc3ccc(-c4csc5c(=O)cc(N6CCNCC6)oc45)cc3)nc2n1C1CCCC1`: the GI50 in experiment [1] was 0.677 µM; in experiment [2], 0.85 µM; in [3], 1.01 µM; in experiment [4] it was 0.523 µM; in experiment [5], 0.453 µM; in [6], 0.551 µM. The GI50 in [7] was 1.24 µM; in experiment [8], 2.1 µM; in [9], 0.313 µM; in experiment [10], 2.14 µM. For the same molecule, the TGI in [1] came out at 4.93 µM; in [2] it was 2.22 µM; in [3], 2.5 µM; in [4] it was 6.12 µM; in [5], 2.74 µM; in experiment [6] it was 2.03 µM. Also, the TGI in [7] was 3.01 µM; in experiment [8], 10.7 µM; in [9] it was 2.03 µM; in [10], 6.88 µM.

For the molecule `Cc1cc2c3ccccc3ccc2[n+]2ccccc12`, the GI50 in [1] was 3.38 µM; in experiment [2] it was 21.5 µM; in experiment [3], 9.02 µM; in [4] it was 10 µM; in [5], 8.7 µM; in experiment [6], 4.71 µM. The GI50 in [7] was 5.43 µM; in experiment [8], 2.29 µM; in experiment [9] it was 4.66 µM; in experiment [10] it was 3.07 µM. Besides, the TGI in [1] was 32.1 µM; in experiment [2], 91.6 µM; in [3] it was 40.4 µM; in experiment [4] it was > 86.2 µM; in experiment [5] it was 80.3 µM; in experiment [6] it was 19.7 µM. The TGI in experiment [7] was > 100 µM; in experiment [8] it was 12.7 µM; in experiment [9], > 33.7 µM; in experiment [10], 12.7 µM.

Turning to `CC1(O)CC2(O)C=CC3=C(C(=O)c4cccc(O)c4C3=O)C2(O)C(=O)C1O` (centres undefined), the TGI in [1] stood at 17.1 µM; in experiment [2], 3.37 µM; in [3], 32.3 µM; in experiment [4], 10.6 µM; in experiment [5] it was 4.66 µM; in [6], 7.54 µM. Further, the TGI in experiment [7] stood at 14.9 µM; in [8], 26.7 µM; in experiment [9], 19.1 µM; in experiment [10], 3.2 µM.

As to `COC(=O)c1ccc2c(c1)C(=O)c1c-2n(CCCN)c(=O)c2cc([N+](=O)[O-])ccc12`, the GI50 in experiment [1] is < 0.0373 µM; in experiment [2], < 0.0115 µM; in experiment [3], < 0.0159 µM; in experiment [4] it was < 0.0156 µM; in [5] it was < 0.01 µM; in experiment [6] it was < 0.01 µM. Further, the GI50 was 0.116 µM in experiment [7], < 0.01 µM in experiment [8] and < 0.0348 µM in [9]. The TGI came to 1.49 µM in experiment [1]; 0.154 µM in experiment [2]; 0.391 µM in experiment [3]; 0.352 µM in experiment [4]; 0.117 µM in experiment [5]; 0.058 µM in [6]. The TGI came to 1.44 µM in [7] and 0.81 µM in experiment [10].

In the case of `C=CC(=O)N1CCC([C@@H]2CCNc3c(C(N)=O)c(-c4ccc(Oc5ccccc5)cc4)nn32)CC1`, the GI50 in [1] is 20.5 µM; in experiment [2] it was 15.2 µM; in [3], 6.82 µM; in experiment [4] it was 0.912 µM; in experiment [5], 14.5 µM; in experiment [6] it was 14.2 µM. In addition, the GI50 in experiment [7] was 1.67 µM; in experiment [8] it was 22.4 µM; in experiment [9] it was 5.39 µM; in experiment [10], 15.6 µM. Further, the TGI is 69.3 µM in [1]; 36.3 µM in experiment [2]; 61.3 µM in experiment [3]; 16.7 µM in experiment [4]; 42.8 µM in experiment [5]; 29.6 µM in [6]. The TGI was 9.25 µM in experiment [7], > 76.6 µM in [8], 30.6 µM in [9] and 30.6 µM in [10].

For `Nc1ncnc2c(C3OC(CO)C(O)C3O)[nH]nc12` (centres undefined), the GI50 was 0.0474 µM in experiment [1]; 0.147 µM in experiment [2]; 0.0125 µM in [3]; 0.0575 µM in [6]; 0.203 µM in experiment [7]; 0.231 µM in [8]. Also, the GI50 in experiment [10] is 2.64 µM and 1.69 µM. Also, the TGI in experiment [1] was 8.97 µM; in experiment [2] it was 2.22 µM and 0.4 µM; in experiment [3], 0.278 µM; in experiment [4] it was 8.6 µM; in experiment [5], 3.96 µM; in experiment [6] it was 3.11 µM and 1.31 µM. Further, the TGI in [7] is 3.98 µM and 4.78 µM; in [8] it was 1.1 µM and 10.1 µM; in experiment [9] it was 5.29 µM and 1.25 µM; in [10], 30.6 µM and 25.4 µM.

On to `O=c1oc2ccc(Cl)cc2c(=O)n1-c1cc(C(F)(F)F)cc(C(F)(F)F)c1`, for which the GI50 was 0.302 µM in [1]; 0.366 µM in [2]; 0.372 µM in experiment [3]; 0.412 µM in experiment [4]; 0.188 µM in experiment [5]; 0.346 µM in [6]. In addition, the GI50 in [7] was 0.0531 µM; in [8] it was 0.206 µM; in [9], 0.201 µM; in [10] it was 0.273 µM. Moreover, the TGI in experiment [1] turned out to be 4.49 µM; in [2] it was 2.33 µM; in experiment [3], 13.9 µM; in experiment [4], 12.9 µM; in experiment [5], 0.712 µM; in experiment [6] it was 3.77 µM. In addition, the TGI in [7] amounted to 0.311 µM; in experiment [8] it was 0.504 µM; in [9], 0.786 µM; in experiment [10], 1.69 µM.

In the case of `CC[N+]1(C)CCC(O)(c2ccccc2)C(C(=O)c2ccccc2)C1` (centres undefined), the TGI in [1] was 33.9 µM; in experiment [2] it was 36.8 µM; in experiment [3] it was 44.6 µM; in [4], 38.6 µM; in experiment [5], 6.37 µM; in [6], 49.8 µM. In addition, the TGI in [7] is 30.7 µM; in [8], 35.9 µM; in [9] it was 24.3 µM; in experiment [10], 30.9 µM.
